Experimental data from patent US20260306464A1, “LINAPRAZAN GLURATE FOR TREATING GASTROESOPHAGEAL REFLUX DISEASE (GERD)” (Cinclus Pharma Holding AB (publ), priority 2023, published 2026).

Legend:
[1] = LEED study: safety and tolerability (adverse events); details: TEAE, LAN 30 mg QD
[2] = LEED study: heartburn assessed by mRESQ-eDiary; assay type: in vivo, human
Description: Relief of reflux-related symptoms may be assessed based on the modified Reflux Symptom Reflux Questionnaire-electronic Diary (mRESQ-eDiary), which is an electronic symptom diary developed for use in partial responders to proton pump inhibitors. mRESQ-eD has three domains (i.e., heartburn, other GERD signs/symptoms and regurgitations/reflux) and eight items (Andrae et al., Clin. Transl. Gastroenterol. 2020, 11(1): e00117).
(§1) The study was a randomized, double-blind, active comparator-controlled study with a parallel group design including four arms with linaprazan glurate and one arm with lansoprazole. Pharmacokinetic (PK) blood sampling pre-dose, close before the first and the second dose administration was performed at Day 7, Day 14 and Day 28 visits days in all patients. 248 patients with erosive esophagitis due to GERD LA grade C or D and patients with erosive esophagitis due to GERD LA grade A or B with at least partial symptom response but still endoscopically unhealed after 8 weeks history of standard treatment healing course with PPI, were randomized.
(§2) Randomization to one of the treatments with linaprazan glurate 25 mg, 50 mg, 75 mg, 100 mg twice daily (BID), or lansoprazole 30 mg once daily (QD) was based on a 1:1:1:1:1 scheme. One site could not enroll more than about 20% of the overall number of patients (48 patients per site).
The duration of each patient's participation in the study, including screening, blind treatment period and open-label treatment period, was approximately 60 days. The patients were randomized for 4 weeks (28 days, −2/+5 days) of double-blind treatment and were provided with IMP for 35 days (including one additional blister pack dispensed at Visit 2/Day 0) to allow for treatment up to the visit window. […] Following the endoscopic evaluation, all patients received subsequent 4 weeks of open-label treatment with lansoprazole 30 mg QD. Repeated symptom evaluation to detect symptom pattern was assessed during this period.
Four doses of linaprazan glurate (25 mg, 50 mg, 75 mg, 100 mg, and dummies) were administered as tablets twice daily. The active comparator lansoprazole 30 mg and its dummy were administered as capsules once daily in the morning. The study drugs were taken with 100 mL of noncarbonated water at least 30 minutes prior to meals. The duration of double-blind treatment was 28 days −2/+5 days. To blind treatment, each patient received 2 tablets (containing doses of linaprazan glurate (LG) or its dummy) and one capsule (containing lansoprazole or its dummy) in the morning and 2 tablets (containing doses of linaprazan glurate (LG) or its dummy) in the evening, according to the scheme below:
A secondary objective of the study was the safety and tolerability of the four dose levels of linaprazan glurate and lansoprazole, with lansoprazole serving as the active comparator. Another secondary objective of the study was the reflux related symptom pattern during the initial 4 weeks treatment with four dose levels of linaprazan glurate and with lansoprazole, and the symptom pattern during the subsequent additional 4 weeks (weeks 5-8) open-label treatment with lansoprazole 30 mg QD. Heartburn-free 24-hour days and 24-hour days with at most mild heartburn symptoms were assessed based on modified eDiary (mRESQ-eD), including splits into day- and nighttime evaluations.
Reflux related symptoms were assessed based on a modified RESQ-eDiary (mRESQ-eD). Patients were asked to report every 12-hours, once before the morning dose and once before the evening dose of the Investigational Medicinal Product (IMP).

[3] = LEED study: endoscopic healing of erosive esophagitis / LA grade improvement after 4 weeks; assay type: in vivo, human; details: lansoprazole 30 mg QD
Description: The severity of esophagitis is typically indicated using the Los Angeles (LA) classification of reflux esophagitis, which is based on an endoscopic assessment of the patient. The LA grade scoring system divides reflux esophagitis into four categories (LA grade A to D) based on the extent of esophageal mucosal breaks. […] LA grade C esophagitis is defined as one or more mucosal breaks that are continuous between the tops of two mucosal folds, but which involves less than 75% of the esophageal circumference. The most severe form, LA grade D esophagitis, is defined as one or more mucosal breaks involving at least 75% of the esophageal circumference (Lundell et al., Gut 1999, vol. 45, p. 172-180).
As used herein, the terms “improvement of the LA grade” and “LA grade improvement” refer to one or more steps from one LA grade to a lower LA grade (such as from grade D to grade C, B or A) or to being healed. In some embodiments, the improvement of the LA grade is 1 step. In some embodiments, the improvement of the LA grade is 2 steps. In some embodiments, the improvement of the LA grade is 3 steps. In some embodiments, the improvement of the LA grade is 4 steps.
The study included patients with erosive esophagitis (eGERD). Patients were divided into two cohorts, one with patients having moderate to severe eGERD (LA grade C/D) and one with patients having milder eGERD (LA grade A/B) with a history of only partial response to PPI-treatment. The primary endpoint of the study was to support dose selection of linaprazan glurate for the phase III program in eGERD, through central assessment of healing of erosive esophagitis after four weeks of treatment. The sample size, i.e., the number of patients needed, for measuring dose related efficacy was based on the patient cohort with moderate to severe eGERD. After initial endoscopy and other screening procedures, 248 patients were randomized equally into one of five treatment groups, receiving either four weeks treatment with linaprazan glurate in four dose levels, or four weeks lansoprazole in the approved standard eGERD healing dose. Thereafter, an endoscopic evaluation of healing was performed, where healing was defined as no presence of esophageal erosions, i.e., no erosive damage to the esophageal mucosa. After the endoscopic evaluation, all patient groups received lansoprazole for four weeks in a maintenance phase. A retrospective central review of the endoscopy findings was performed, and 162 patients were available for evaluation of the primary endpoint. All enrolled 248 patients were included in the safety analysis.
as §1, §2
The duration of each patient's participation in the study, including screening, blind treatment period and open-label treatment period, was approximately 60 days. The patients were randomized for 4 weeks (28 days, −2/+5 days) of double-blind treatment and were provided with IMP for 35 days (including one additional blister pack dispensed at Visit 2/Day 0) to allow for treatment up to the visit window. […]

[4] = Dynamic vapour sorption (DVS) analysis; assay type: physicochemical
Experimental: In some embodiments, Form 1 of the HCl salt of linaprazan glurate is stable at a relative humidity up to 90% at a temperature of 25° C.

[5] = week 4, erosive patients all LA grades, LAN 30 mg QD (N = 20)

## Cc1c(OCC(F)(F)F)ccnc1C[S+]([O-])c1nc2ccccc2[nH]1 (centres unmarked) [lansoprazole, reference compound]
[1]
  COVID-19 (%): 4.0%
  COVID-19 events: 2 events
  Constipation (%): 0.0%
  Constipation events: 0 events
  Headache (%): 2.0%
  Headache events: 1 events
  Nausea (%): 8.0%
  Nausea events: 4 events
[2]; FAS Erosive, first week, morning and evening, lansoprazole 30 mg QD
  heartburn severity, rank among groups: highest heartburn severity
[2]; FAS, first week, morning and evening, lansoprazole 30 mg QD
  severity grade of heartburn, rank among groups: highest severity grade of heartburn
[2]; LA Grade A/B, week 4, lansoprazole 30 mg QD
  heartburn-free days, rank among groups: most heartburn-free days
[2]; LA Grade A/B, week 6 open-label, lansoprazole group
  heartburn-free days, rank among groups: highest
[2]; LA Grade C/D, week 2-4, lansoprazole 30 mg QD
  heartburn-free days, rank among groups: lowest percentage of heartburn-free days
[2]; LA Grade C/D, week 5-8 open-label, lansoprazole group
  heartburn-free days, rank among groups: lowest percentage of heartburn-free days
[2]; [5]
  % at most mild symptoms 24-hour days (mean): 88%
  % heartburn-free 24-hour days (mean): 52%
  Patients (%) totally free from heartburn: 32%
  Patients (%) with at most mild heartburn: 79%
  Patients (%) with non-mild heartburn: 21%
[3]; LA grade A/B
  four-week healing rate: 81%
[3]; LA grade A/B/C/D, 4 weeks, FIG. 8
  healing rate: 69%
[3]; LA grade C/D, 4 weeks, FIG. 5
  mean LA grade improvement: 2.1
[3]; LA grade C/D
  four-week healing rate: 38%

## Cc1cccc(C)c1CNc1cc(C(=O)NCCOC(=O)CCCC(=O)O)cn2c(C)c(C)nc12
[4]; 90% RH
  water uptake: about 0.2%
[4]; about 30% to about 80% RH
  water content of the crystals on humidity changes: remains substantially constant
[4]; dynamic vapour sorption
  hygroscopicity: very low hygroscopicity
